From US20130310256A1, “HERBICIDAL COMPOSITIONS COMPRISING 4-AMINO-3-CHLORO-5-FLUORO-6-(4-CHLORO-2-FLUORO-3-METHOXYPHENYL) PYRIDINE-2-CARBOXYLIC ACID OR A DERIVATIVE THEREOF AND VLCFA AND LIPID SYNTHESIS INHIBITING HERBICIDES” (DOW AGROSCIENCES LLC, priority 2008, published 2013)
“And” between values parts separate entries of the source, which are not always exact repeats. Identical values can stand only once.

How the values were obtained:
[1] = system: ECHCG; test: Example V: field trial, in-water application to transplanted rice, Niigata, Japan; format: in vivo, Echinochloa crus-galli; details: early post-emergence; for Visual Weed Control ECHCG (11 DAA) Obs / Visual Weed Control ECHCG Obs: 11 DAA
Method: Post and pre-emergence field trials were conducted in Niigata, Japan. Trial sites were located in commercially grown fields of transplanted rice (Oryza sativa, variety: Koshihikari) using standard herbicide small plot research methodology. The trial plot size was 2 meters (m)×2 m with 3 replications. The nursery plants were grown in the greenhouse using practical methods and transplanted into the field at the 2.5-leaf stage on May 7, 2012. The row and in-row spaces were 30 cm and 17 cm, respectively. The crop was grown using normal cultural practices for fertilization, water management and maintenance to ensure good growth of the crop and the weeds.
Treatments consisted of the benzyl ester of 4-amino-3-chloro-5-fluoro-6-(4-chloro-2-fluoro-3-methoxyphenyl)pyridine-2-carboxylic acid (Compound A) formulated as an SC (suspension concentrate) and various herbicidal components alone and in combination. Compound A benzyl ester was applied on an active ingredient basis. The herbicidal components were applied on an active ingredient basis and included very long chain fatty acid (VLCFA) synthesis-inhibiting and fatty acid/lipid biosynthesis herbicides pretilachlor formulated as a commercially available granular formulation and benfuresate formulated as a commercially available flowable formulation.
Compound A benzyl ester SC was once diluted in 100 mL water in the 200 mL bottle/plot to achieve the desired rates and applied by water injection. Water injection applications were made by hand as evenly as possible. Pretilachlor was applied by hand, and benfuresate was applied using a pipette to achieve the desired rates. Each compound in mixture treatments was applied separately and successively. Water depth was 3 cm at application. […] Visual weed control was scored on a scale of 0 to 100 percent where 0 corresponds to no injury and 100 corresponds to complete kill.
All treatment results, both for the single product and mixtures, are an average of 3 replicates. The trial sites had naturally occurring populations of weeds. The weed spectrum included, but was not limited to, common barnyardgrass (Echinochloa crus-galli, ECHCG), monochoria (Monochoria vaginalis, MOOVA), Japanese bulrush (Scirpus juncoides, SCPJU), kuroguwai (Eleocharis kuroguwai, ELOKU), common falsepimpernel (Lindernia pyxidaria, LIDPY), Souchet tardif (Cyperus serotinus, CYPSE), small-flower flatsedge (Cyperus difformis, CYPDI), American waterwort (Elatine triandra, ELTTR), and swamp smartweed (Polygonum hydropiperoides, POLHP).
Colby's equation was used to determine the herbicidal effects expected from the mixtures (Colby, S. R. 1967. Calculation of the synergistic and antagonistic response of herbicide combinations. Weeds 15:20-22.).
Some of the compounds tested, application rates employed, plant species tested, and results for submerged (weeds have not yet emerged from the flood water) weed control are given in Table 54. Some of the compounds tested, application rates employed, plant species tested, and results for early postemergence weed control are given in Tables 55-56.

[2] = system: CYPIR; test: Example I: postemergence foliar-applied weed control, greenhouse; format: in vivo, Cyperus iria L. (rice flatsedge)
How it was run: (§1)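 Plants grown in loam/sandy loam–calcareous grit soil (80:20) in greenhouse, 14 hr photoperiod, about 29° C. day/26° C. night, treated postemergence at first to fourth true leaf stage. Foliar spray at 187 L/ha with 1.25% (v/v) crop oil concentrate; Compound A dosed on acid equivalent basis, partners on active ingredient basis.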

[3] = system: ECHCG; test: as above; format: in vivo, Echinochloa crus-galli (L.) Beauv. (barnyardgrass); details: for Visual Weed Control (%) - 22 DAA ECHCG Obs / Visual Weed Control (%) - 20 DAA ECHCG Obs: foliar
How it was run: as §1

[4] = system: ECHCO; test: as above; format: in vivo, Echinochloa colona (L.) Link (junglerice); details: for Visual Weed Control Obs: 20 DAA
How it was run: as §1

[5] = system: BRAPP; test: Example I: postemergence foliar-applied weed control, direct seeded rice weeds, greenhouse; format: in vivo; details: for Visual Weed Control Obs: 20 DAA; for Visual Weed Control (%) - 22 DAA BRAPP Obs: foliar
How it was run: as §1

In the case of `CCS(=O)(=O)Oc1ccc2c(c1)C(C)(C)CO2` [Benfuresate, 2,3-dihydro-3,3-dimethyl-5-benzofuranyl ethanesulfonate], the “Visual Weed Control ECHCG (11 DAA) Obs” value ([1]; 600 gai/ha) is reported as 6.7%, the “Visual Weed Control ECHCG (16 DAA) Obs” value ([1]; 600 gai/ha) is reported as 20.0% and the “Visual Weed Control (%) - 22 DAA CYPIR Obs” value ([2]; 150 gai/ha, foliar) is reported as 0%. The “Visual Weed Control (%) - 22 DAA CYPIR Obs” value ([2]; 300 gai/ha, foliar) was 10%, the “Visual Weed Control (%) - 22 DAA ECHCG Obs” value ([3]; 75 gai/ha) was 0% and the “Visual Weed Control (%) - 22 DAA ECHCG Obs” value ([3]; 150 gai/ha) was 0%. The “Visual Weed Control (%) - 22 DAA ECHCG Obs” value ([3]; 300 gai/ha) was 0%, the “Visual Weed Control (%) - 22 DAA ECHCO Obs” value ([4]; 75 gai/ha, foliar) was 0% and the “Visual Weed Control (%) - 22 DAA ECHCO Obs” value ([4]; 150 gai/ha, foliar) was 0%. For the same compound, the “Visual Weed Control (%) - 22 DAA ECHCO Obs” value ([4]; 300 gai/ha, foliar) was 0%.

In the case of `CCCOCCN(C(=O)CCl)c1c(CC)cccc1CC` [Pretilachlor, 2-chloro-N-(2,6-diethylphenyl)-N-(2-propoxyethyl)acetamide], the “Visual Weed Control ECHCG Obs” value ([1]; 400 gai/ha) is reported as 46.7%, the “Visual Weed Control Obs” value ([5]; 37.5 gai/ha) is reported as 0% and the “Visual Weed Control Obs” value ([5]; 75 gai/ha) is reported as 0%. The “Visual Weed Control Obs” value ([5]; 150 gai/ha) was 0%, the “Visual Weed Control Obs” value ([2]; 20 DAA, 37.5 gai/ha) was 0% and the “Visual Weed Control Obs” value ([2]; 20 DAA, 75 gai/ha) was 0%. The “Visual Weed Control Obs” value ([2]; 20 DAA, 150 gai/ha) was 0%, the “Visual Weed Control Obs” value ([3]; 20 DAA, 37.5 gai/ha) was 10% and the “Visual Weed Control Obs” value ([3]; 20 DAA, 75 gai/ha) was 10%. The “Visual Weed Control Obs” value ([3]; 20 DAA, 150 gai/ha) was 0%, the “Visual Weed Control Obs” value ([4]; 37.5 gai/ha) was 0% and the “Visual Weed Control Obs” value ([4]; 75 gai/ha) was 0%. For the same compound, the “Visual Weed Control Obs” value ([4]; 150 gai/ha) was 0%.

In the case of `COc1c(Cl)ccc(-c2nc(C(=O)O)c(Cl)c(N)c2F)c1F` [Compound A Acid, 4-amino-3-chloro-6-(4-chloro-2-fluoro-3-methoxyphenyl)-5-fluoropyridine-2-carboxylic acid], the “Visual Weed Control Obs” value ([5]; 4.38 gae/ha) is reported as 50% and 60% and 75%, the “Visual Weed Control Obs” value ([5]; 8.75 gae/ha) is reported as 70% and 80% and the “Visual Weed Control (%) - 22 DAA CYPIR Obs” value ([2]; 5.3 gae/ha, foliar) is reported as 60%. For the same compound, the “Visual Weed Control Obs” value ([2]; 20 DAA, 4.38 gae/ha) was 40%, the “Visual Weed Control Obs” value ([2]; 21 DAA, 4.38 gae/ha) was 70% and the “Visual Weed Control (%) - 22 DAA ECHCG Obs” value ([3]; 5.3 gae/ha) was 65%. The “Visual Weed Control (%) - 22 DAA ECHCG Obs” value ([3]; 10.6 gae/ha) was 55%, the “Visual Weed Control Obs” value ([3]; 20 DAA, 4.38 gae/ha) was 60% and 50% and the “Visual Weed Control Obs” value ([3]; 21 DAA, 17.5 gae/ha) was 88%. For the same compound, the “Visual Weed Control Obs” value ([3]; 21 DAA, 35 gae/ha) was 85%, the “Visual Weed Control (%) - 22 DAA ECHCO Obs” value ([4]; 5.3 gae/ha, foliar) was 65% and the “Visual Weed Control (%) - 22 DAA ECHCO Obs” value ([4]; 10.6 gae/ha, foliar) was 65%. For the same compound, the “Visual Weed Control Obs” value ([4]; 4.38 gae/ha) was 65% and 40% and 70% and the “Visual Weed Control Obs” value ([4]; 8.75 gae/ha) was 85% and 60%.

In the case of `COc1c(Cl)ccc(-c2nc(C(=O)OCc3ccccc3)c(Cl)c(N)c2F)c1F` [Compound A Benzyl Ester, benzyl ester of 4-amino-3-chloro-5-fluoro-6-(4-chloro-2-fluoro-3-methoxy-phenyl)pyridine-2-carboxylic acid], the “Visual Weed Control ECHCG (11 DAA) Obs” value ([1]; 100 gai/ha) is reported as 3.3%, the “Visual Weed Control ECHCG Obs” value ([1]; 100 gai/ha) is reported as 6.7% and the “Visual Weed Control ECHCG (16 DAA) Obs” value ([1]; 100 gai/ha) is reported as 20.0%. For the same compound, the “Visual Weed Control (%) - 22 DAA BRAPP Obs” value ([5]; 8 gae/ha) was 60% and 65%, the “Visual Weed Control (%) - 22 DAA BRAPP Obs” value ([5]; 16 gae/ha) was 60% and 80% and the “Visual Weed Control Obs” value ([5]; 4.38 gae/ha) was 60%. The “Visual Weed Control Obs” value ([5]; 8.75 gae/ha) was 65%, the “Visual Weed Control (%) - 22 DAA BRAPP Obs” value ([5]; 32 gae/ha) was 90% and 85% and the “Visual Weed Control (%) - 21 DAA CYPIR Obs” value ([2]; 8 gae/ha, foliar) was 30%. For the same compound, the “Visual Weed Control (%) - 22 DAA CYPIR Obs” value ([2]; 16 gae/ha, foliar) was 60%, the “Visual Weed Control Obs” value ([2]; 20 DAA, 4.38 gae/ha) was 80% and the “Visual Weed Control (%) - 22 DAA ECHCG Obs” value ([3]; 5.3 gae/ha) was 40%. For the same compound, the “Visual Weed Control (%) - 20 DAA ECHCG Obs” value ([3]; 8 gae/ha) was 63%, the “Visual Weed Control (%) - 22 DAA ECHCG Obs” value ([3]; 8 gae/ha) was 25% and the “Visual Weed Control (%) - 22 DAA ECHCG Obs” value ([3]; 10.6 gae/ha) was 60%. For the same compound, the “Visual Weed Control (%) - 20 DAA ECHCG Obs” value ([3]; 16 gae/ha) was 78%, the “Visual Weed Control (%) - 22 DAA ECHCG Obs” value ([3]; 16 gae/ha) was 50% and the “Visual Weed Control Obs” value ([3]; 20 DAA, 4.38 gae/ha) was 70%. The “Visual Weed Control Obs” value ([3]; 20 DAA, 8.75 gae/ha) was 70%, the “Visual Weed Control Obs” value ([3]; 20 DAA, 16 gae/ha) was 78% and the “Visual Weed Control Obs” value ([3]; 20 DAA, 32 gae/ha) was 83%. For the same compound, the “Visual Weed Control (%) - 20 DAA ECHCG Obs” value ([3]; 32 gae/ha) was 83%, the “Visual Weed Control (%) - 22 DAA ECHCG Obs” value ([3]; 32 gae/ha) was 85% and the “Visual Weed Control (%) - 22 DAA ECHCO Obs” value ([4]; 5.3 gae/ha, foliar) was 30%. For the same compound, the “Visual Weed Control (%) - 19 DAA ECHCO Obs” value ([4]; 8 gae/ha, foliar) was 65%, the “Visual Weed Control (%) - 20 DAA ECHCO Obs” value ([4]; 8 gae/ha, foliar) was 40% and the “Visual Weed Control (%) - 22 DAA ECHCO Obs” value ([4]; 10.6 gae/ha, foliar) was 55%. For the same compound, the “Visual Weed Control (%) - 20 DAA ECHCO Obs” value ([4]; 16 gae/ha, foliar) was 60%, the “Visual Weed Control Obs” value ([4]; 4.38 gae/ha) was 60% and the “Visual Weed Control Obs” value ([4]; 8.75 gae/ha) was 85% and 70%. For the same compound, the “Visual Weed Control (%) - 20 DAA ECHCO Obs” value ([4]; 32 gae/ha, foliar) was 90%.

In the case of `CCN(CC)C(=O)n1cnc(S(=O)(=O)c2c(C)cc(C)cc2C)n1` [Cafenstrole, N,N-diethyl-3-[(2,4,6-trimethylphenyl)sulfonyl]-1H-1,2,4-triazole-1-carboxamide], the “Visual Weed Control Obs” value ([5]; 26.25 gai/ha Himeadow WP) is reported as 0%, the “Visual Weed Control Obs” value ([5]; 52.5 gai/ha Himeadow WP) is reported as 0% and the “Visual Weed Control Obs” value ([5]; 105 gai/ha Himeadow WP) is reported as 0%. The “Visual Weed Control Obs” value ([2]; 21 DAA, 26.25 gai/ha Lapost Flowable) was 0%, the “Visual Weed Control Obs” value ([2]; 21 DAA, 52.5 gai/ha Lapost Flowable) was 0% and the “Visual Weed Control Obs” value ([2]; 21 DAA, 105 gai/ha Lapost Flowable) was 0%. For the same compound, the “Visual Weed Control Obs” value ([3]; 20 DAA, 26.25 gai/ha Himeadow WP) was 10%, the “Visual Weed Control Obs” value ([3]; 20 DAA, 52.5 gai/ha Himeadow WP) was 15% and the “Visual Weed Control Obs” value ([3]; 20 DAA, 105 gai/ha Himeadow WP) was 15%. The “Visual Weed Control Obs” value ([3]; 21 DAA, 210 gai/ha Lapost Flowable) was 0%, the “Visual Weed Control Obs” value ([4]; 26.25 gai/ha Himeadow WP) was 10% and the “Visual Weed Control Obs” value ([4]; 52.5 gai/ha Himeadow WP) was 10%. For the same compound, the “Visual Weed Control Obs” value ([4]; 105 gai/ha Himeadow WP) was 10%.
